Results as given in patent publication US4156777A, “Process for producing glucopyranose-nitrosourea compounds and novel compounds included therein” (Tokyo Tanabe Company, Limited, priority 1977, dated 1979).
Converted amounts (≈) assume the structure as drawn.

What was measured:
[1] = Absorption and excretion of 14C-labelled compounds; assay type: in vivo, rats; conditions: rats, 14C-labelled
Procedure: The carbon atom at the 2-position of the chloroethyl group (i.e. ClCH2 CH2 -) of 6DCNU and 6MCαG was labelled with radioactive ^14 C, and the absorption and excretion of these compounds were tested using rats.

[2] = test system: Escherichia coli NIHJ JC-2; assay: Antibacterial activity, broth-dilution method; assay type: cell-based; conditions: NIHJJC2
Excerpt: (§1) Using 6DCNU and 6MCαG, minimum inhibiting concentrations (referred to as "MIC") for various kinds of bacteria were estimated by means of the broth-dilution method.

[3] = test system: Mycobacterium smegmatis ATCC 607; assay: Antibacterial activity, broth-dilution method; assay type: cell-based; conditions: Mycolicibacterium smegmatis, ATCC607
Excerpt: as §1

[4] = test system: Klebsiella pneumoniae IFM 3008; assay: Antibacterial activity, broth-dilution method; assay type: cell-based; conditions: IFM3008
Excerpt: as §1

[5] = test system: Pseudomonas aeruginosa IFO 3080; assay: Antibacterial activity, broth-dilution method; assay type: cell-based; conditions: IFO3080
Excerpt: as §1

[6] = test system: Staphylococcus aureus FDA 209P JC-1; assay: Antibacterial activity, broth-dilution method; assay type: cell-based; conditions: FDA209P
Excerpt: as §1

[7] = test system: Shigella sonnei; assay: Antibacterial activity, broth-dilution method; assay type: cell-based
Excerpt: as §1

[8] = test system: Sarcina lutea ATCC 9341; assay: Antibacterial activity, broth-dilution method; assay type: cell-based; conditions: Micrococcus luteus, ATCC9341
Excerpt: as §1

[9] = test system: Bacillus subtilis ATCC 6633; assay: Antibacterial activity, broth-dilution method; assay type: cell-based; conditions: ATCC6633
Excerpt: as §1

[10] = test system: Proteus vulgaris AHU 1469; assay: Antibacterial activity, broth-dilution method; assay type: cell-based; conditions: AHU1469
Excerpt: as §1

[11] = test system: Streptococcus faecalis AHU 1085; assay: Antibacterial activity, broth-dilution method; assay type: cell-based; conditions: Enterococcus faecalis, AHU1085
Excerpt: as §1

[12] = test system: leukemia L-1210; assay: Antitumor activity against leukemia L-1210 implanted in BDF1 mice (ILS, 60 days survivors); assay type: in vivo
Excerpt: Test compounds were given to BDF1 mice 24 hrs after implantation of 10^6 cells of leukemia L-1210 in each animal, through single intraperitoneal administration, intraperitoneal administration for 5 successive days, single oral administration or oral administration for 5 successive days, whereupon the increase in life span (referred to as "ILS") and number of 60 days survivors of test animals were estimated, said test of antitumor activity being that according to the method of the National Cancer Center, Tokyo [A. Hoshi et al: Farmashia, 9 (1973), 464]. In the tests, the compounds were dissolved in physiological saline solution just before administration.
^a i.p.: intraperitoneal administration p.o: oral administration
D1 : single administration D1~5 : administration for 5
^b percentage calculated from mean survival time over control
^c survivors/six animals

[13] = Solubility in water at 25° C.; assay type: physicochemical; conditions: amount soluble in 1 ml water at 25° C.
[14] = Effect on respiration, blood pressure, heart rate and electrocardiogram; assay type: in vivo, Beagle dogs; conditions: dog, in vivo, iv; injected into brachial veins, anesthetized Beagle dogs; read-out: maximum dosage not effected on respiration, blood pressure, heart rate and electrocardiogram
Procedure: Beagle dogs of both sexes weighing about 10 kg were anesthetized with pentobarbital sodium (30 mg/kg, i.v.), and immobilized in the supine position. Test compounds dissolved in physiological saline solution were injected into the brachial veins of the animals and the arteries at cannulated positions were treated with heparin sodium as anticoagulant.
The respiration rate of each animal was estimated with a respirometer (Nihonkohden, RP-3) through a tracheal cannula, the blood pressure with an electro-haemodynamometer (Nihonkohden, MP-4T) attached surgically to the femoral artery, and the heart rate with a pulse-rate tachometer (Nihonkohden, RT-2) through the trigger pulse of the blood pressure.

[15] = Acute toxicity (LD50); assay type: in vivo, male Wister rats; conditions: rat, in vivo, after 1 week
Procedure: Test compounds were dissolved in physiological saline solution just before their dosage and administered to male Wister rats, intraperitoneally, intravenously and orally. After 1 week, the LD50 of each compound was calculated from the mortality of the test animals by the Lichfield-Wilcoxon Method.
i.v.: intravenous administration

CO[C@H]1O[C@H](CNC(=O)N(CCCl)N=O)[C@@H](O)[C@H](O)[C@H]1O [Example 6MCαG, 1-(2-chloroethyl)-3-(methyl α-D-glucopyranos-6-yl)-1-nitrosourea]
absorption, in words [1]: absorbed well | excretion rate, intravenous versus oral administration, in words [1]: almost the same excretion rates | main route of excretion, in words [1]: excreted mainly in the urine | MIC [2]: > 200 µg/mL | MIC [3]: > 200 µg/mL | MIC [4]: > 200 µg/mL | MIC [5]: > 200 µg/mL | MIC [6]: > 200 µg/mL | MIC [7]: > 200 µg/mL | MIC [8]: > 200 µg/mL | MIC [9]: > 200 µg/mL | MIC [10]: > 200 µg/mL | MIC [11]: > 200 µg/mL | ILS ([12]; 2.3 mg/kg/day, i.p. D1~5): > 207% | Survivors (60 days) ([12]; 2.3 mg/kg/day, i.p. D1~5): 1/6 | ILS ([12]; 3.2 mg/kg/day, i.p. D1~5): > 521% | Survivors (60 days) ([12]; 3.2 mg/kg/day, i.p. D1~5): 4/6 | ILS ([12]; 3.2 mg/kg/day, p.o. D1~5): 38% | ILS ([12]; 4.5 mg/kg/day, i.p. D1~5): > 607% | Survivors (60 days) ([12]; 4.5 mg/kg/day, i.p. D1~5): 5/6 | ILS ([12]; 6.3 mg/kg/day, i.p. D1): > 241% | Survivors (60 days) ([12]; 6.3 mg/kg/day, i.p. D1): 3/6 | ILS ([12]; 6.3 mg/kg/day, i.p. D1~5): > 722% | Survivors (60 days) ([12]; 6.3 mg/kg/day, i.p. D1~5): 6/6 | ILS ([12]; 6.3 mg/kg/day, p.o. D1~5): > 397% | Survivors (60 days) ([12]; 6.3 mg/kg/day, p.o. D1~5): 3/6 | ILS ([12]; 9.0 mg/kg/day, i.p. D1): > 604% | Survivors (60 days) ([12]; 9.0 mg/kg/day, i.p. D1): 5/6 | ILS ([12]; 9.0 mg/kg/day, i.p. D1~5): > 700% | Survivors (60 days) ([12]; 9.0 mg/kg/day, i.p. D1~5): 6/6 | ILS ([12]; 9.0 mg/kg/day, p.o. D1~5): > 417% | Survivors (60 days) ([12]; 9.0 mg/kg/day, p.o. D1~5): 3/6 | ILS ([12]; 12.5 mg/kg/day, i.p. D1): > 619% | Survivors (60 days) ([12]; 12.5 mg/kg/day, i.p. D1): 6/6 | ILS ([12]; 12.5 mg/kg/day, i.p. D1~5): > 722% | Survivors (60 days) ([12]; 12.5 mg/kg/day, i.p. D1~5): 6/6 | ILS ([12]; 12.5 mg/kg/day, p.o. D1~5): > 700% | Survivors (60 days) ([12]; 12.5 mg/kg/day, p.o. D1~5): 6/6 | ILS ([12]; 18.0 mg/kg/day, i.p. D1): > 632% | Survivors (60 days) ([12]; 18.0 mg/kg/day, i.p. D1): 6/6 | ILS ([12]; 18.0 mg/kg/day, i.p. D1~5): > 493% | Survivors (60 days) ([12]; 18.0 mg/kg/day, i.p. D1~5): 4/6 | ILS ([12]; 18.0 mg/kg/day, p.o. D1~5): > 679% | Survivors (60 days) ([12]; 18.0 mg/kg/day, p.o. D1~5): 6/6 | ILS ([12]; 25.0 mg/kg/day, i.p. D1): > 625% | Survivors (60 days) ([12]; 25.0 mg/kg/day, i.p. D1): 6/6 | ILS ([12]; 25.0 mg/kg/day, i.p. D1~5): > 393% | Survivors (60 days) ([12]; 25.0 mg/kg/day, i.p. D1~5): 3/6 | ILS ([12]; 25.0 mg/kg/day, p.o. D1~5): 233% | ILS ([12]; 35.0 mg/kg/day, i.p. D1): > 632% | Survivors (60 days) ([12]; 35.0 mg/kg/day, i.p. D1): 6/6 | ILS ([12]; 35.0 mg/kg/day, i.p. D1~5): > 157% | Survivors (60 days) ([12]; 35.0 mg/kg/day, i.p. D1~5): 1/6 | ILS ([12]; 50.0 mg/kg/day, i.p. D1): > 388% | Survivors (60 days) ([12]; 50.0 mg/kg/day, i.p. D1): 3/6 | solubility [13]: 900 mg/mL (≈ 2750 mM) | NOAEL [14]: 50 mg/kg | LD50 at 168 h ([15]; ip): 42 mg/kg | LD50 at 168 h ([15]; iv): 42 mg/kg | LD50 at 168 h ([15]; po): 50 mg/kg
